Marks after values point to notes of the source that are not given here. Blank lines part the entries; values can stand above or below the compound they belong to.
Key:
[1] = tested on: Substance P-induced increase of vascular permeability (tachykinin receptor); experiment: Substance P-induced increase of vascular permeability in guinea pig skin (Evans Blue dye); format: in vivo, guinea pigs; details: Substance P 1 pmole/site, 10 mg/kg oral
Experimental: (§1) The compounds of the present invention and synthesized LY-303870 were suspended or dissolved in 0.5% sodium carboxymethylcellulose solution, and orally administered at the dose of 5 mL/kg. to male Hartley SPF guinea pigs of 6 week age.
(§2) Guinea pigs, sheared of fur, were anesthetized with ether and 1% Evan Blue dye in physiological saline (1 mL/500 g b.w.) was injected into their fore-leg intravenously. Immediately after the dye injection, SP (1 pmol/site), NKA (100 pmol/site) and NKB (100 pmol/site) in physiological saline were injected dorsal intradermally (0.05 mL/site) whereby the reaction of increase of vascular permeability was induced. Half an hour after tachykinin challenge, the animals were sacrificed by decapitation and bloodletting, and the dorsal skin was removed and the amount of transuded blue dye thereof was measured. Namely, the blue dyed sites were punched out using a punch for leather (16 mm diameter), of which 2 pieces were allowed to stand at 37° C. overnight in a covered tube with addition of 1 mL of 2 mol/L KOH solution. After stirring well, 6 mL of a mixture of 2 mol/L H3PO4 solution and acetone (1:3) were added thereto and Evans Blue dye was extracted by vigorous shaking for 10 minutes. After the precipitate was filtered off, the absorbance of the filtrate was measured at 620 nm with a spectrophotometer and the amount of dye was determined from the calibration curve. Nonspecific reaction was estimated from the amount of transuded dye by the injection of physiological saline. The significant difference in the average values between the control group and the test compound-treated group was calculated by means of a Student's t-test or Dunnett's test (Statistical Library I, two-sided test, Yukms).
(§3) The tested compounds were orally administered at a dose of 10 mg/kg at various points from 30 min to 8 hrs before the induction of tachykinin-induced increase of vascular permeability. An example of the results is shown in Table 2 (* and ** stand for the significant difference of p<0.05 and p<0.01 respectively compared to control).

[2] = tested on: Neurokinin A-induced increase of vascular permeability (tachykinin receptor); experiment: Neurokinin A-induced increase of vascular permeability in guinea pig skin (Evans Blue dye); format: in vivo, guinea pigs; details: Neurokinin A 100 pmole/site, 10 mg/kg oral
Experimental: as §1, §2, §3

[3] = tested on: Neurokinin B-induced increase of vascular permeability (tachykinin receptor); experiment: Neurokinin B-induced increase of vascular permeability in guinea pig skin (Evans Blue dye); format: in vivo, guinea pigs; details: Neurokinin B 100 pmole/site, 10 mg/kg oral
Experimental: as §1, §2, §3

[4] = biological target: human NK1 receptors (Homo sapiens, UniProt P25103); experiment: Binding assay for human NK1 receptors ((3H)-Sar9-SP, human NK1-CHO cells)
[5] = 0.5 hr from administration to induction
[6] = 1 hr from administration to induction
[7] = 2 hr from administration to induction
[8] = 4 hr from administration to induction
[9] = 8 hr from administration to induction
[10] = 3 hr from administration to induction

Chain of human NK1 receptors (P25103 whole entry): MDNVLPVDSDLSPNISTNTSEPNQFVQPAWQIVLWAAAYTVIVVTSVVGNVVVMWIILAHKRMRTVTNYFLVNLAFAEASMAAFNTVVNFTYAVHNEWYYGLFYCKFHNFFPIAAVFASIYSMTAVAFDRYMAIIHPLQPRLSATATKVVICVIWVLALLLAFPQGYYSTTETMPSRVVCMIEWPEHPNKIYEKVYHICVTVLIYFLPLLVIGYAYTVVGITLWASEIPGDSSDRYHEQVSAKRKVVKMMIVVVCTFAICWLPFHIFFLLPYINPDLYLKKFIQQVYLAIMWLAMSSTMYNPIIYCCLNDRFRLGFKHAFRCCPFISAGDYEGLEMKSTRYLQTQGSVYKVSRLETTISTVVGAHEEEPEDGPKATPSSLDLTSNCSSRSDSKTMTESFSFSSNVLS

Compound: CN1C(=O)CN(Cc2n[nH]c(=O)[nH]2)[C@@H](c2ccccc2)[C@H]1COCc1cc(C(F)(F)F)cc(C(F)(F)F)c1 [Compound 26, (5S,6S)-6-(3,5-Bis(trifluoromethyl)benzyloxymethyl)-1-methyl-4-(5-oxo-4,5-dihydro-1H-(1,2,4)triazol-3-ylmethyl)-5-phenylpiperazin-2-one]
amount of transuded blue dye, Mean ± S.E [1, 5]: 6.2 ± 1.5** | amount of transuded blue dye, Mean ± S.E [1, 6]: 1.4 ± 0.6** | amount of transuded blue dye, Mean ± S.E [1, 7]: 4.3 ± 0.9** | amount of transuded blue dye, Mean ± S.E [1, 8]: 4.9 ± 1.3** | amount of transuded blue dye, Mean ± S.E [1, 9]: 11.9 ± 2.4** | amount of transuded blue dye, Mean ± S.E [2, 5]: 3.6 ± 0.7** | amount of transuded blue dye, Mean ± S.E [2, 6]: 1.0 ± 0.5** | amount of transuded blue dye, Mean ± S.E [2, 7]: 2.6 ± 1.4** | amount of transuded blue dye, Mean ± S.E [2, 8]: 3.6 ± 2.6** | amount of transuded blue dye, Mean ± S.E [2, 9]: 10.1 ± 3.3 | amount of transuded blue dye, Mean ± S.E [3, 5]: 1.4 ± 0.9** | amount of transuded blue dye, Mean ± S.E [3, 6]: 0.1 ± 0.1** | amount of transuded blue dye, Mean ± S.E [3, 7]: 0.5 ± 0.4** | amount of transuded blue dye, Mean ± S.E [3, 8]: 1.0 ± 0.4** | amount of transuded blue dye, Mean ± S.E [3, 9]: 9.4 ± 1.6** | IC50 [4]: 40 pM

Compound: CN(C)Cc1[nH]nnc1CN1CC(=O)N[C@H](COCc2cc(C(F)(F)F)cc(C(F)(F)F)c2)[C@@H]1c1ccc(F)cc1.Cl.Cl
melting point: 213 to 216 °C

Compound: Cl.O=C1CN[C@@H](c2ccccc2)[C@@H](COCc2cc(C(F)(F)F)cc(C(F)(F)F)c2)N1
melting point: 219 to 221 °C

Compound: O=C1CN(Cc2n[nH]c(=O)[nH]2)[C@@H](c2ccccc2)[C@@H](COCc2cc(C(F)(F)F)cc(C(F)(F)F)c2)N1 [Compound 12, (5S,6S)-6-(3,5-Bis(trifluoromethyl)benzyloxymethyl)-4-(5-oxo-4,5-dihydro-1H-(1,2,4)triazol-3-ylmethyl)-5-phenylpiperazin-2-one]
IC50 [4]: 1500 pM

Compound: COc1ccccc1CN(C[C@@H](Cc1c[nH]c2ccccc12)NC(=O)CN1CCC(N2CCCCC2)CC1)C(C)=O [LY-303870, reference compound]
amount of transuded blue dye, Mean ± S.E [1, 5]: 6.3 ± 2.1** | amount of transuded blue dye, Mean ± S.E [1, 6]: 7.8 ± 2.5** | amount of transuded blue dye, Mean ± S.E [1, 7]: 17.0 ± 3.4 | amount of transuded blue dye, Mean ± S.E [1, 10]: 12.2 ± 2.2** | amount of transuded blue dye, Mean ± S.E [1, 8]: 14.4 ± 0.9** | amount of transuded blue dye, Mean ± S.E [2, 5]: 5.3 ± 2.3** | amount of transuded blue dye, Mean ± S.E [2, 6]: 5.8 ± 1.9** | amount of transuded blue dye, Mean ± S.E [2, 7]: 14.5 ± 5.0 | amount of transuded blue dye, Mean ± S.E [2, 10]: 11.1 ± 4.3 | amount of transuded blue dye, Mean ± S.E [2, 8]: 10.8 ± 3.4 | amount of transuded blue dye, Mean ± S.E [3, 5]: 2.0 ± 1.2** | amount of transuded blue dye, Mean ± S.E [3, 6]: 5.0 ± 2.2** | amount of transuded blue dye, Mean ± S.E [3, 7]: 12.0 ± 3.2* | amount of transuded blue dye, Mean ± S.E [3, 10]: 7.7 ± 1.8** | amount of transuded blue dye, Mean ± S.E [3, 8]: 13.6 ± 1.1**

Compound: CN(C)Cc1[nH]nnc1CN1CC(=O)N(C)[C@H](COCc2cc(C(F)(F)F)cc(C(F)(F)F)c2)[C@@H]1c1ccc(F)cc1.Cl.Cl
melting point: 142 to 145 °C

Other lines, results leading:

melting point: 138 to 140 °C
Compound: O=C1CN(Cc2n[nH]c(=O)[nH]2)[C@@H](c2ccc(F)cc2)[C@@H](COCc2cc(C(F)(F)F)cc(C(F)(F)F)c2)N1 [Compound 40, (5S,6S)-6-(3,5-Bis(trifluoromethyl)benzyloxymethyl)-5-(4-fluorophenyl)-4-(5-oxo-4,5-dihydro-1H-(1,2,4)triazol-3-ylmethyl)piperazin-2-one]

melting point: 129 to 132 °C | IC50 [4]: 240 pM
Compound: O=C1CN(Cc2n[nH]c(=O)[nH]2)[C@@H](c2ccc(F)cc2)[C@@H](COCc2cc(C(F)(F)F)cc(C(F)(F)F)c2)N1 [Compound 32, (5S,6S)-6-(3,5-Bis(trifluoromethyl)benzyloxymethyl)-5-(4-fluorophenyl)-4-(5-oxo-4,5-dihydro-1H-(1,2,4)triazol-3-ylmethyl)piperazin-2-one]

melting point: 212 to 213 °C
Compound: CN1C(=O)CN(Cc2n[nH]c(=O)[nH]2)[C@@H](c2ccc(F)cc2)[C@H]1COCc1cc(C(F)(F)F)cc(C(F)(F)F)c1 [Compound 38, (5S,6S)-6-(3,5-Bis(trifluoromethyl)benzyloxymethyl)-5-(4-fluorophenyl)-1-methyl-4-(5-oxo-4,5-dihydro-1H-(1,2,4)triazol-3-ylmethyl)piperazin-2-one]

melting point: 138 to 140 °C
Compound: O=C1CN(Cc2n[nH]c(=O)[nH]2)[C@H](c2ccccc2)[C@H](COCc2cc(C(F)(F)F)cc(C(F)(F)F)c2)N1 [Compound 27, (5R,6R)-6-(3,5-Bis(trifluoromethyl)benzyloxymethyl)-4-(5-oxo-4,5-dihydro-1H-(1,2,4)triazol-3-ylmethyl)-5-phenylpiperazin-2-one]

Reference: patent US6906074B2, “2-phenylpiperazine derivatives” (Nippon Zoki Pharmaceutical Co., Ltd., priority 2002, dated 2005)
